In brackets after ≈: the same amount, converted by molar mass.
Key:
Bacillus subtilis = test: Bactericidal test (MIC), Bacillus subtilis; assay type: cell-based; settings: (3) Bacillus subtilis
From the text: (§1) Results of bactericidal tests (MIC, r/ml) on the penicillin derivatives of this invention prepared in the above examples are shown in the following table.

[1] = test system: Pseudomonas aeruginosa IFO-3080; test: Bactericidal test (MIC), Pseudomonas aeruginosa IFO-3080; assay type: cell-based; settings: IFO3080; (12) Pseudomonas aeruginosa IFO-3080; read-out: MIC
From the text: as §1

[2] = test system: Staphylococcus aureus 209-p; test: Bactericidal test (MIC), Staphylococcus aureus 209-p; assay type: cell-based; settings: (1) Staphylococcus aureus 209-p
From the text: as §1

[3] = test system: Pseudomonas aeruginosa Tid-53; test: Bactericidal test (MIC), Pseudomonas aeruginosa Tid-53; assay type: cell-based; settings: TID53; (14) Pseudomonas aeruginosa Tid-53
From the text: as §1

Enterobactor cloacae 147 = test: Bactericidal test (MIC), Enterobactor cloacae 147; assay type: cell-based; settings: (7) Enterobactor cloacae 147
From the text: as §1

[4] = test system: Escherichia Coli NIHJ JC-2; test: Bactericidal test (MIC), Escherichia Coli NIHJ JC-2; assay type: cell-based; settings: NIHJJC2; (5) Escherichia Coli NIHJ JC-2
From the text: as §1

Morganella var. G-2 = test: Bactericidal test (MIC), Morganella var. G-2; assay type: cell-based; settings: VAR.G2; (9) Morganella var. G-2; read-out: MIC
From the text: as §1

[5] = test system: Salmonella typhimurium G-20; test: Bactericidal test (MIC), Salmonella typhimurium G-20; assay type: cell-based; settings: Salmonella enterica; (4) Salmonella typhimurium G-20
From the text: as §1

Rettgerella var. Tid-21 = test: Bactericidal test (MIC), Rettgerella var. Tid-21; assay type: cell-based; settings: (10) Rettgerella var. Tid-21; read-out: MIC
From the text: as §1

[6] = test system: Pseudomonas aeruginosa 130; test: Bactericidal test (MIC), Pseudomonas aeruginosa 130; assay type: cell-based; settings: (16) Pseudomonas aeruginosa 130
From the text: as §1

[7] = test system: Klebsiella neumoniae ATCC10031; test: Bactericidal test (MIC), Klebsiella neumoniae ATCC10031; assay type: cell-based; settings: (6) Klebsiella neumoniae ATCC10031; read-out: MIC
From the text: as §1

[8] = test system: Enterobacter cloacae IF012937; test: Bactericidal test (MIC), Enterobacter cloacae IF012937; assay type: cell-based; settings: (8) Enterobacter cloacae IF012937
From the text: as §1

[9] = test system: Pseudomonas aeruginosa GN-315; test: Bactericidal test (MIC), Pseudomonas aeruginosa GN-315; assay type: cell-based; settings: GN315; (15) Pseudomonas aeruginosa GN-315
From the text: as §1

[10] = Acute toxicity values [(LD50), mouse]; settings: in vivo
From the text: Acute toxicity values [(LD50), mouse] of some penicillin derivatives of this invention are illustrated in the following table.

[11] = test system: Pseudomonas aeruginosa 0-37; test: Bactericidal test (MIC), Pseudomonas aeruginosa 0-37; assay type: cell-based; settings: 037; (13) Pseudomonas aeruginosa 0-37
From the text: as §1

[12] = test system: Staphylococcus aureus 1248; test: Bactericidal test (MIC), Staphylococcus aureus 1248; assay type: cell-based; settings: (2) Staphylococcus aureus 1248; read-out: MIC
From the text: as §1

Serratia G-18 = test: Bactericidal test (MIC), Serratia G-18; assay type: cell-based; settings: G18; (11) Serratia G-18; read-out: MIC
From the text: as §1

[13] = Rates of protein fixation (human serum protein); assay type: in vitro ADME; settings: read-out: Rate of protein fixation (converted)
From the text: Rates of protein fixation (human serum protein) of the penicillin derivatives of this invention are illustrated as follows: […]

Row | SMILES | MIC (Bacillus subtilis) | MIC [1] | MIC [2] | MIC [3] | MIC (Enterobactor cloacae 147) | MIC [4] | MIC (Morganella var. G-2) | MIC [5] | MIC (Rettgerella var. Tid-21) | MIC [6] | MIC [7] | MIC [8] | MIC [9] | LD50 ([10]; Oral) | MIC [11] | MIC [12] | MIC (Serratia G-18) | fraction unbound [13] | LD50 ([10]; ip, Intraabdominal)
1 | CC1(C)S[C@@H]2[C@H](NC(=O)[C@H](NC(=O)c3cc4ccccc4oc3=O)c3ccccc3)C(=O)N2[C@H]1C(=O)O [Example 1, D(-)-α-(Coumarin-3-carbonamido)benzylpenicillin] | < 0.4 µg/mL | < 0.4 µg/mL | < 0.4 µg/mL | 3.13 µg/mL (≈ 6 µM) | 3.13 µg/mL (≈ 6 µM) | < 0.4 µg/mL | 3.13 µg/mL (≈ 6 µM) | < 0.4 µg/mL | 1.56 µg/mL (≈ 2.99 µM) | < 0.4 µg/mL | < 0.4 µg/mL | 6.25 µg/mL (≈ 12 µM) | 1.56 µg/mL (≈ 2.99 µM) | > 4000 mg/kg | 12.5 µg/mL (≈ 24 µM) | 1.56 µg/mL (≈ 2.99 µM) | 12.5 µg/mL (≈ 24 µM) | – | –
2 | CC1(C)S[C@@H]2[C@H](NC(=O)[C@H](NC(=O)c3cc4cc(Cl)ccc4oc3=O)c3ccccc3)C(=O)N2[C@H]1C(=O)O [Example 2, D(-)-α-(6-Chlorocoumarin-3-carbonamido)benzylpenicillin] | < 0.4 µg/mL | 3.13 µg/mL (≈ 5.63 µM) | < 0.4 µg/mL | 25 µg/mL (≈ 45 µM) | 25 µg/mL (≈ 45 µM) | < 0.4 µg/mL | 12.5 µg/mL (≈ 22.5 µM) | < 0.4 µg/mL | 12.5 µg/mL (≈ 22.5 µM) | 6.25 µg/mL (≈ 11.2 µM) | 1.56 µg/mL (≈ 2.81 µM) | 25 µg/mL (≈ 45 µM) | 25 µg/mL (≈ 45 µM) | – | 50 µg/mL (≈ 89.9 µM) | 1.56 µg/mL (≈ 2.81 µM) | 50 µg/mL (≈ 89.9 µM) | 0.33 | –
3 | CC1(C)S[C@@H]2[C@H](NC(=O)[C@H](NC(=O)c3cc4cc(Br)ccc4oc3=O)c3ccccc3)C(=O)N2[C@H]1C(=O)O [Example 3, D(-)-α-(6-Bromocoumarin-3-carbonamido)benzylpenicillin] | < 0.4 µg/mL | 1.56 µg/mL (≈ 2.6 µM) | < 0.4 µg/mL | 6.25 µg/mL (≈ 10.4 µM) | 3.13 µg/mL (≈ 5.21 µM) | < 0.4 µg/mL | 6.25 µg/mL (≈ 10.4 µM) | < 0.4 µg/mL | 6.25 µg/mL (≈ 10.4 µM) | 1.56 µg/mL (≈ 2.6 µM) | 1.56 µg/mL (≈ 2.6 µM) | 25 µg/mL (≈ 41.6 µM) | 6.25 µg/mL (≈ 10.4 µM) | – | 25 µg/mL (≈ 41.6 µM) | 1.56 µg/mL (≈ 2.6 µM) | 25 µg/mL (≈ 41.6 µM) | 0.2 | –
4 | COc1cccc2cc(C(=O)N[C@@H](C(=O)N[C@@H]3C(=O)N4[C@@H]3SC(C)(C)[C@@H]4C(=O)O)c3ccccc3)c(=O)oc12 [Example 6, D(-)-α-(8-Methoxycoumarin-3-carbonamido)benzylpenicillin] | < 0.4 µg/mL | 0.8 µg/mL (≈ 1.45 µM) | < 0.4 µg/mL | 6.25 µg/mL (≈ 11.3 µM) | 3.13 µg/mL (≈ 5.67 µM) | < 0.4 µg/mL | 0.8 µg/mL (≈ 1.45 µM) | < 0.4 µg/mL | 3.13 µg/mL (≈ 5.67 µM) | 1.56 µg/mL (≈ 2.83 µM) | 0.8 µg/mL (≈ 1.45 µM) | 6.25 µg/mL (≈ 11.3 µM) | 3.13 µg/mL (≈ 5.67 µM) | > 4000 mg/kg | 12.5 µg/mL (≈ 22.7 µM) | 0.8 µg/mL (≈ 1.45 µM) | 6.25 µg/mL (≈ 11.3 µM) | 0.42 | 2000 mg/kg
5 | CC(=O)Oc1ccc2oc(=O)c(C(=O)N[C@@H](C(=O)N[C@@H]3C(=O)N4[C@@H]3SC(C)(C)[C@@H]4C(=O)O)c3ccccc3)cc2c1 [Example 9, D(-)-α-(6-Acetoxycoumarin-3-carbonamido)benzylpenicillin] | < 0.4 µg/mL | 0.8 µg/mL (≈ 1.38 µM) | < 0.4 µg/mL | 6.25 µg/mL (≈ 10.8 µM) | 3.13 µg/mL (≈ 5.4 µM) | < 0.4 µg/mL | 6.25 µg/mL (≈ 10.8 µM) | < 0.4 µg/mL | 3.13 µg/mL (≈ 5.4 µM) | < 0.4 µg/mL | < 0.4 µg/mL | 25 µg/mL (≈ 43.1 µM) | 6.25 µg/mL (≈ 10.8 µM) | > 4000 mg/kg | 25 µg/mL (≈ 43.1 µM) | 3.13 µg/mL (≈ 5.4 µM) | 25 µg/mL (≈ 43.1 µM) | 0.2 | 2000 mg/kg
6 | CC1(C)S[C@@H]2[C@H](NC(=O)[C@H](NC(=O)c3cc4ccccc4oc3=O)c3ccc(O)cc3)C(=O)N2[C@H]1C(=O)O [Example 16, D(-)-α-(Coumarin-3-carbonamido)-p-hydroxybenzylpenicillin] | < 0.4 µg/mL | 0.8 µg/mL (≈ 1.49 µM) | < 0.4 µg/mL | 6.25 µg/mL (≈ 11.6 µM) | 6.25 µg/mL (≈ 11.6 µM) | < 0.4 µg/mL | 12.5 µg/mL (≈ 23.3 µM) | < 0.4 µg/mL | 1.56 µg/mL (≈ 2.9 µM) | 1.56 µg/mL (≈ 2.9 µM) | 6.25 µg/mL (≈ 11.6 µM) | 25 µg/mL (≈ 46.5 µM) | 3.13 µg/mL (≈ 5.82 µM) | – | 25 µg/mL (≈ 46.5 µM) | 1.56 µg/mL (≈ 2.9 µM) | 50 µg/mL (≈ 93 µM) | 0.55 | –
7 | COc1cccc2cc(C(=O)N[C@@H](C(=O)N[C@@H]3C(=O)N4[C@@H]3SC(C)(C)[C@@H]4C(=O)O)c3ccc(O)cc3)c(=O)oc12 [Example 18, D(-)-α-(8-Methoxycoumarin-3-carbonamido)-p-hydroxylbenzylpenicillin] | < 0.4 µg/mL | 0.8 µg/mL (≈ 1.41 µM) | < 0.4 µg/mL | 3.13 µg/mL (≈ 5.51 µM) | 3.13 µg/mL (≈ 5.51 µM) | < 0.4 µg/mL | 3.13 µg/mL (≈ 5.51 µM) | < 0.4 µg/mL | 3.13 µg/mL (≈ 5.51 µM) | 1.56 µg/mL (≈ 2.75 µM) | 0.8 µg/mL (≈ 1.41 µM) | 3.13 µg/mL (≈ 5.51 µM) | 3.13 µg/mL (≈ 5.51 µM) | > 4000 mg/kg | 12.5 µg/mL (≈ 22 µM) | 1.56 µg/mL (≈ 2.75 µM) | 6.25 µg/mL (≈ 11 µM) | – | 2000 mg/kg

From patent US4303664A, “Novel penicillin derivatives containing a coumarin nucleus and medicines containing the same” (Teijin Limited, priority 1978, dated 1981)
